Holding throughout (assay type): cell-based
For test [1], the system named is S. pyogenes (ATCC 51339). The test can be described thus: Antibacterial susceptibility testing (MIC, broth microdilution or agar dilution), S. pyogenes. Conditions: Streptococcus pyogenes, ATCC51339; read-out: S. pyogenes (ATCC 51339) minimal inhibitory concentration (MIC). Put shortly: (§1)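 MICs by CLSI (M7-A7) broth microdilution or agar dilution, against reference ATCC strains as listed.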

Test [2] has as its system S. aureus (ATCC 29213). The test can be described thus: Antibacterial susceptibility testing (MIC, broth microdilution or agar dilution), S. aureus. Put shortly:
as §1
A general note: Dilution methods test growth across graded concentrations, often in twofold steps.

The test system of test [3] is E. faecalis (ATCC 29212). As to the kind of experiment: Antibacterial susceptibility testing (MIC, broth microdilution or agar dilution), E. faecalis. The procedure: (§2) Compounds of the invention were tested for antimicrobial activity by susceptibility testing in liquid or on solid media. MICs for compounds against each strain were determined by the broth microdilution or agar dilution method according to the guidelines of the Clinical Laboratories and Standards Institute, formerly the National Committee for Clinical Laboratory Standards (Clinical Laboratories and Standards Institute. Methods for Dilution Antimicrobial Susceptibility Tests for Bacteria That Grow Aerobically; Approved Standard—Seventh Edition. Document M7-A7. CLSI, Wayne, Pa., 2006; Clinical Laboratories and Standards Institute. The Gram positive bacterial strains tested include S. aureus (Staphylococcus aureus (Isolate ID ATCC 29213)), E. faecalis (Enterococcus faecalis (Isolate ID ATCC 29212)) and S. pyogenes (Streptococcus pyogenes (Isolate ID ATCC 51339)). The Gram negative bacterial strains tested include H. influenzae (Haemophilus influenzae (Isolate ID ATCC 49247)).

Test [4] concerns H. influenzae (ATCC 49247). The test can be described thus: Antibacterial susceptibility testing (MIC, broth microdilution or agar dilution), H. influenzae. Conditions: Haemophilus influenzae, ATCC49247; read-out: H. influenzae (ATCC 49247) minimal inhibitory concentration (MIC). As to the method: as §2
Setting [5] is: Staphylococcus aureus, ATCC29213; read-out: S. aureus (ATCC 29213) minimal inhibitory concentration (MIC).
[6] abbreviates: Enterococcus faecalis, ATCC29212; read-out: E. faecalis (ATCC 29212) minimal inhibitory concentration (MIC).

Structures are written as SMILES. Converted amounts (≈) assume the structure as drawn. Where two headings read alike, the source gives them in different places. Where only a bound is given, the exact number is not on record here.

As for `CCNC(=O)Nc1cc(Nc2cccc(C)c2)c(C(=O)Nc2cccc(C)c2)cn1` [Compound 1, 6-(3-ethylureido)-N-m-tolyl-4-(m-tolylamino)nicotinamide], the results for the MIC in test [1], in test [2] (setting [5]) and in test [3] (setting [6]) were 16 µg/mL (≈ 39.7 µM), 2 µg/mL (≈ 4.96 µM) and at most 1 µg/mL, respectively.
For the compound `CCNC(=O)Nc1cc(Nc2ccccc2)c(C(=O)Nc2cccc(Cl)c2)cn1` [Compound 4], the MIC was 4 µg/mL (≈ 9.76 µM) in test [1], at most 1 µg/mL in test [2] (setting [5]) and at most 1 µg/mL in test [3] (setting [6]).
Take `CCNC(=O)Nc1cc(Nc2cccnc2)c(C(=O)Nc2ccccc2)cn1` [Compound 13, 6-(3-ethylureido)-N-phenyl-4-(pyridin-3-ylamino)nicotinamide]: the MIC in test [1], in test [2] (setting [5]) and in test [3] (setting [6]) was at most 1 µg/mL in each case.
Regarding `CCNC(=O)Nc1cc(Nc2ccccc2)c(C(=O)Nc2ccccc2)cn1` [Compound 17, 6-(3-ethylureido)-N-phenyl-4-(phenylamino)nicotinamide], the values for the MIC in test [1], in test [2] (setting [5]) and in test [3] (setting [6]) were 2 µg/mL (≈ 5.33 µM), at most 1 µg/mL and at most 1 µg/mL, respectively.
On to `CCNC(=O)Nc1cc(Nc2ccccc2)c(C(=O)Nc2cccc(C)c2)cn1` [Compound 18, 6-(3-ethylureido)-4-(phenylamino)-N-m-tolylnicotinamide], for which the MIC in test [1] was 2 µg/mL (≈ 5.14 µM); in test [2] (setting [5]) it was at most 1 µg/mL; in test [3] (setting [6]) it was at most 1 µg/mL.
As for `CCNC(=O)Nc1cc(Nc2cccnc2)c(C(=O)Nc2cccnc2)cn1` [Compound 19, 6-(3-ethylureido)-N-(pyridin-3-yl)-4-(pyridin-3-ylamino)nicotinamide], the MIC in test [1] is at most 1 µg/mL; in test [2] (setting [5]), 8 µg/mL (≈ 21.2 µM); in test [3] (setting [6]) it was at most 1 µg/mL.
With `CCNC(=O)Nc1cc(Nc2ccccc2)c(C(=O)Nc2cccnc2)cn1` [Compound 20, 6-(3-ethylureido)-4-(phenylamino)-N-(pyridin-3-yl)nicotinamide], the MIC in test [1], in test [2] (setting [5]) and in test [3] (setting [6]) was at most 1 µg/mL in each case.
As to `CCNC(=O)Nc1cc(Nc2ccccc2)c(C(=O)Nc2ccc(N3CCOCC3)nc2)cn1` [Compound 23, 6-(3-ethylureido)-N-(6-morpholinopyridin-3-yl)-4-(phenylamino)nicotinamide], the MIC in test [1] is at most 1 µg/mL; in test [2] (setting [5]), 2 µg/mL (≈ 4.33 µM); in test [3] (setting [6]), at most 1 µg/mL.
As for `CCNC(=O)Nc1cc(Nc2ccccc2)c(C(=O)Nc2ccc(NC(C)=O)nc2)cn1` [Compound 24, N-(6-acetamidopyridin-3-yl)-6-(3-ethylureido)-4-(phenylamino)nicotinamide], the MIC in test [1] was at most 1 µg/mL; in test [2] (setting [5]) it was 2 µg/mL (≈ 4.61 µM); in test [3] (setting [6]), at most 1 µg/mL.
With `CCNC(=O)Nc1cc(NCc2cccnc2)c(C(=O)Nc2ccccc2)cn1` [Compound 25, 6-(3-ethylureido)-N-phenyl-4-(pyridin-3-ylmethylamino)nicotinamide], the MIC amounted to 8 µg/mL (≈ 20.5 µM) in test [1] and 2 µg/mL (≈ 5.12 µM) in test [3] (setting [6]).
Regarding `CCNC(=O)Nc1cc(NCc2cccnc2)c(C(=O)Nc2cccnc2)cn1` [Compound 26, 6-(3-ethylureido)-N-(pyridin-3-yl)-4-(pyridin-3-ylmethylamino)nicotinamide], the MIC in test [1] and in test [3] (setting [6]) was 8 µg/mL (≈ 20.4 µM) each time.
Regarding `CCNC(=O)Nc1cc(Nc2ccccc2)c(C(=O)NCc2cccnc2)cn1` [Compound 28, 6-(3-ethylureido)-4-(phenylamino)-N-(pyridin-3-ylmethyl)nicotinamide], the MIC in test [1] and in test [3] (setting [6]) was at most 1 µg/mL throughout.
For the compound `CCNC(=O)Nc1cc(Nc2ccccc2)c(C(=O)Nc2ccc([C@@H]3C[C@H]3C(=O)OCC)cc2)cn1` [Compound 180], in test [4], the MIC was found to be 2 µg/mL (≈ 4.1 µM).
As to `CCNC(=O)Nc1cc(Nc2ccc(F)cc2)c(C(=O)Nc2ccc(CN3CCCC3)cc2)cn1` [Compound 200, 6-[(ethylcarbamoyl)amino]-4-[(4-fluorophenyl)amino]-N-[4-(pyrrolidin-1-ylmethyl)phenyl]pyridine-3-carboxamide], the MIC in test [2] (setting [5]) amounted to 8 µg/mL (≈ 16.8 µM); in test [3] (setting [6]), 2 µg/mL (≈ 4.2 µM).
As to `CCNC(=O)Nc1cc(Nc2ccc(F)cc2)c(C(=O)Nc2ccc(CN3CCOCC3)cc2)cn1` [Compound 201, 6-[(ethylcarbamoyl)amino]-4-[(4-fluorophenyl)amino]-N-[4-(morpholin-4-ylmethyl)phenyl]pyridine-3-carboxamide], the MIC in test [2] (setting [5]) was 2 µg/mL (≈ 4.06 µM); in test [3] (setting [6]), at most 1 µg/mL.
For `CCNC(=O)Nc1cc(Nc2ccc(F)cc2)c(C(=O)Nc2ccc(CN3CCN(C)CC3)cc2)cn1` [Compound 202, 6-[(ethylcarbamoyl)amino]-4-[(4-fluorophenyl)amino]-N-{4-[(4-methylpiperazin-1-yl)methyl]phenyl}pyridine-3-carboxamide], the MIC is 8 µg/mL (≈ 15.8 µM) in test [2] (setting [5]) and 2 µg/mL (≈ 3.96 µM) in test [3] (setting [6]).
For `CCNC(=O)Nc1cc(Nc2ccc(C#N)cc2)c(C(=O)Nc2ccc(CN3CCCC3)cc2)cn1` [Compound 203, 4-[(4-cyanophenyl)amino]-6-[(ethylcarbamoyl)amino]-N-[4-(pyrrolidin-1-ylmethyl)phenyl]pyridine-3-carboxamide], in that order: 2 µg/mL (≈ 4.14 µM) and at most 1 µg/mL.
With `CCNC(=O)Nc1cc(Nc2ccc(C#N)cc2)c(C(=O)Nc2ccc(CN3CCN(C)CC3)cc2)cn1` [Compound 205, 4-[(4-cyanophenyl)amino]-6-[(ethylcarbamoyl)amino]-N-{4-[(4-methylpiperazin-1-yl)methyl]phenyl}pyridine-3-carboxamide], the MIC is 2 µg/mL (≈ 3.9 µM) in test [2] (setting [5]) and at most 1 µg/mL in test [3] (setting [6]).
On to `CCNC(=O)Nc1cc(Nc2ccccc2)c(C(=O)Nc2ccc(CP(=O)(OCC)OCC)cc2)cn1` [Compound 206], for which the MIC in test [2] (Staphylococcus aureus, ATCC29213, read-out: S. aureus (ATCC 29213) minimal inhibitory concentration (MIC)) is at most 1 µg/mL; in test [3] (Enterococcus faecalis, ATCC29212, read-out: E. faecalis (ATCC 29212) minimal inhibitory concentration (MIC)), at most 1 µg/mL.
As to `CCNC(=O)Nc1cc(Nc2ccccc2)c(C(=O)Nc2ccc(C(=O)NC)cc2)cn1` [Compound 213, 6-[(ethylcarbamoyl)amino]-N-[4-(methylcarbamoyl)phenyl]-4-(phenylamino)pyridine-3-carboxamide], the MIC in test [2] (setting [5]) was 4 µg/mL (≈ 9.25 µM); in test [3] (setting [6]), at most 1 µg/mL.
For `CCNC(=O)Nc1cc(Nc2ccccc2)c(C(=O)Nc2ccc(CN3CCS(=O)(=O)CC3)cc2)cn1` [Compound 214, N-{4-[(1,1-dioxidothiomorpholin-4-yl)methyl]phenyl}-6-[(ethylcarbamoyl)amino]-4-(phenylamino)pyridine-3-carboxamide], in that order: 4 µg/mL (≈ 7.65 µM) and at most 1 µg/mL.
For `CCNC(=O)Nc1cc(Nc2ccc(F)c(F)c2)c(C(=O)Nc2ccc(CCC(=O)OCC)cc2)cn1` [Compound 215, ethyl 3-{4-[({4-[(3,4-difluorophenyl)amino]-6-[(ethylcarbamoyl)amino]pyridin-3-yl}carbonyl)amino]phenyl}propanoate], the MIC in test [2] (setting [5]) and in test [3] (setting [6]) was at most 1 µg/mL each time.
In the case of `CCNC(=O)Nc1cc(Nc2ccc(F)c(C)c2)c(C(=O)Nc2ccc(CCC(=O)OCC)cc2)cn1` [Compound 218, ethyl 3-{4-[({6-[(ethylcarbamoyl)amino]-4-[(4-fluoro-3-methylphenyl)amino]pyridin-3-yl}carbonyl)amino]phenyl}propanoate], in test [3] (setting [6]), the MIC was at most 1 µg/mL.
For `CCNC(=O)Nc1cc(Nc2ccc(Cl)cc2F)c(C(=O)Nc2ccc(CCC(=O)OCC)cc2)cn1` [Compound 219, ethyl 3-{4-[({4-[(4-chloro-2-fluorophenyl)amino]-6-[(ethylcarbamoyl)amino]pyridin-3-yl}carbonyl)amino]phenyl}propanoate], the MIC in test [3] (setting [6]) was at most 1 µg/mL.
For the compound `CCNC(=O)Nc1cc(Nc2cc(Cl)cc(Cl)c2)c(C(=O)Nc2ccc(CCC(=O)OCC)cc2)cn1` [Compound 225, ethyl 3-{4-[({4-[(3,5-dichlorophenyl)amino]-6-[(ethylcarbamoyl)amino]pyridin-3-yl}carbonyl)amino]phenyl}propanoate], the MIC in test [2] (setting [5]) was 4 µg/mL (≈ 7.35 µM); in test [3] (setting [6]), at most 1 µg/mL.
For `CCNC(=O)Nc1cc(Nc2ccc(F)c(Cl)c2)c(C(=O)Nc2ccc(CCC(=O)OCC)cc2)cn1` [Compound 226, ethyl 3-{4-[({4-[(3-chloro-4-fluorophenyl)amino]-6-[(ethylcarbamoyl)amino]pyridin-3-yl}carbonyl)amino]phenyl}propanoate], in that order: 2 µg/mL (≈ 3.79 µM) and at most 1 µg/mL.
On to `CCNC(=O)Nc1cc(Nc2ccc(F)cc2F)c(C(=O)Nc2ccc(CCC(=O)OCC)cc2)cn1` [Compound 227], for which the MIC in test [3] (setting [6]) was at most 1 µg/mL.
Consider `CCNC(=O)Nc1cc(Nc2ccccc2)c(C(=O)Nc2ccn(CC(=O)O)n2)cn1` [Compound 233, {3-[({6-[(ethylcarbamoyl)amino]-4-(phenylamino)pyridin-3-yl}carbonyl)amino]-1H-pyrazol-1-yl}acetic acid], for which the MIC in test [3] (setting [6]) is 2 µg/mL (≈ 4.72 µM).
For `CCNC(=O)Nc1cc(Nc2cc(F)cc(F)c2)c(C(=O)Nc2ccc(CCC(=O)OCC)cc2)cn1` [Compound 234, ethyl 3-{4-[({4-[(3,5-difluorophenyl)amino]-6-[(ethylcarbamoyl)amino]pyridin-3-yl}carbonyl)amino]phenyl}propanoate], the MIC in test [3] (setting [6]) is at most 1 µg/mL.

These data come from patent publication US9060515B2, “Heterocyclic urea compounds” (BIOTA EUROPE LTD, priority 2011, dated 2015).
